This note sets out measurements from patent US6306860A, “2,5-pyridinedicarboxylic acid derivatives” (Dong Wha Pharm. Inc. Co., Ltd., priority 1998, dated 2001).

The target of one test is T1, HBV polymerase (Hepatitis B virus genotype D subtype ayw, UniProt P03156).
T1 construct: made in house; host or cells: E. coli
The test is described as follows: Inhibitory activities against HBV polymerase (reverse transcriptase activity) in vitro. It is filed as biochemical. As to conditions: read-out: Inhibitory activity of HBV-RT (%); for inhibition at 0.01 µg/mL: 0.01 μg/ml; for inhibition at 0.1 µg/mL: 0.1 μg/ml; for inhibition at 1 µg/mL: 1 μg/ml. The gist of the method: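 Recombinant HBV polymerase expressed in E. coli was incubated with reaction mixture and test compound for 18~24 hours at 14° C.~30° C. Reverse transcriptase product, labelled with biotin- and DIG-modified nucleotide, detected ELISA-style with peroxidase anti-DIG antibody; inhibition judged relative to controls without compound.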

In test [1] the target is T2, HIV reverse transcriptase (Human immunodeficiency virus type 1 group M subtype B, UniProt P04585).
T2 construct: purchased Boehringer Mannheim
The test is described as follows: In vitro inhibition test against HIV reverse transcriptase. Type of test: biochemical. As to conditions: read-out: Inhibitory activity of HIV-RT (%). The gist of the method:
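Non-radioactive colorimetric kit assay: 40 ng HIV-RT with poly(A)/oligo(dT)15 template/primer plus DIG-dUTP, biotin-dUTP and TTP, incubated with compound 1 h at 37 °C. Product captured on streptavidin, detected with anti-DIG-POD and ABTS; A405 read, with activity compared to a no-compound control.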

Where a name gives a salt, the structure may show the parent alone. Read-outs that look alike come from different tables or passages of the source.

T1 sequence (P03156 whole entry): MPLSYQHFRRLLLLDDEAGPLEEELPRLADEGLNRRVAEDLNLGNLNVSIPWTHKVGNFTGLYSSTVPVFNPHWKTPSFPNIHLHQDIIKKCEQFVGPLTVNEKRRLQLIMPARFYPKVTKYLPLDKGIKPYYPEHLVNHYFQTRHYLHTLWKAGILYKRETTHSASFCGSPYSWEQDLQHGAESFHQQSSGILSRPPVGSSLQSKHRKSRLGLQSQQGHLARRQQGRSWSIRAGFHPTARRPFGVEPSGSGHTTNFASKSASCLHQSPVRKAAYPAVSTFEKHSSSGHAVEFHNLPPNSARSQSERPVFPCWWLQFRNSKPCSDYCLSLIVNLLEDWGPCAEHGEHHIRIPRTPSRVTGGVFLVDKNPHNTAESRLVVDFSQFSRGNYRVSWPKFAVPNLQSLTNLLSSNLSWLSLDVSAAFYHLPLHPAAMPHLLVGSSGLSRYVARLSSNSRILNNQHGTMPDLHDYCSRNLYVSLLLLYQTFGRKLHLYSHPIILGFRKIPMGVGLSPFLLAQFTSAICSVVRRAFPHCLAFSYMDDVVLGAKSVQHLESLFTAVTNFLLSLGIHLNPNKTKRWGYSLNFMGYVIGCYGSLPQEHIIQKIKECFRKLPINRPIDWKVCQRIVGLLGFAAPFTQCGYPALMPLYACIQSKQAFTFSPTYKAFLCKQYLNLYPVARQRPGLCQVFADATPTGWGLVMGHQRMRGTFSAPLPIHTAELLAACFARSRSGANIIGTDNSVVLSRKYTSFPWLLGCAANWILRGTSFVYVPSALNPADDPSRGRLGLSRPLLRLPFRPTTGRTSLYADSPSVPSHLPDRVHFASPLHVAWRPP

As for `Nc1cccnc1N1CCN(C(=O)c2ccc(C(=O)NCc3ccccn3)cn2)CC1` [Exam. 75, 6-[1-(3-amino-2-pyridyl)piperazin-4-yl-carbonyl]-N-(2-pyridylmethyl)nicotinamide.HCl], at HBV polymerase, the inhibition at 0.01 µg/mL turned out to be 22%, the inhibition at 0.1 µg/mL is 54% and the inhibition at 1 µg/mL was found to be 72%. Also, the inhibition at 0.1 µg/mL in test [1] (0.1 μg/ml) was 53%. Also, the inhibition at 1 µg/mL in test [1] (1 μg/ml) is 72%.

`CC(C)Nc1cccnc1N1CCN(C(=O)c2ccc(C(=O)NCc3cccnc3)cn2)CC1` [Exam. 76, 6-[1-[3-(isopropylamino)-2-pyridyl]piperazin-4-yl-carbonyl]-N-(3-pyridylmethyl)nicotinamide]: on HBV polymerase, the inhibition at 0.01 µg/mL stood at 30%. The results for the inhibition at 0.1 µg/mL (at HBV polymerase; in test [1] (0.1 μg/ml)) were 53% and 57%, respectively. The inhibition at 1 µg/mL at HBV polymerase amounted to 62%; in test [1] (1 μg/ml), 82%.

For `CC(C)Nc1cccnc1N1CCN(C(=O)c2ccc(C(=O)NCc3ccncc3)cn2)CC1` [Exam. 77, 6-[1-[3-(isopropylamino)-2-pyridyl]piperazin-4-yl-carbonyl]-N-(4-pyridylmethyl)nicotinamide], the inhibition at 0.01 µg/mL at HBV polymerase was determined as 39%. For the same molecule, the inhibition at 0.1 µg/mL on HBV polymerase is 65%; in test [1] (0.1 μg/ml), 59%. For the same molecule, the inhibition at 1 µg/mL (at HBV polymerase; in test [1] (1 μg/ml)) was 79% in each case.

As for `Cc1ncc(CO)c(CNC(=O)c2ccc(C(=O)N3CCN(c4ncccc4NC(C)C)CC3)nc2)c1O` [Exam. 78], at HBV polymerase, the inhibition at 0.01 µg/mL was found to be 15%, the inhibition at 0.1 µg/mL worked out at 58% and the inhibition at 1 µg/mL worked out at 62%. In addition, the inhibition at 0.1 µg/mL in test [1] (0.1 μg/ml) worked out at 52%. The inhibition at 1 µg/mL in test [1] (1 μg/ml) was determined as 70%.

In the case of `CC(C)Nc1cccnc1N1CCN(C(=O)c2ccc(C(=O)NCc3ccco3)cn2)CC1` [Exam. 79, N-(2-Furylmethyl)-6-[1-[3-(isopropylamino)-2-pyridyl]piperazin-4-yl-carbonyl]nicotinamide.HCl], at HBV polymerase, the inhibition at 0.01 µg/mL worked out at 54%, the inhibition at 0.1 µg/mL came to 63% and the inhibition at 1 µg/mL amounted to 78%. Moreover, the inhibition at 0.1 µg/mL in test [1] (0.1 μg/ml) was 20%. Further, the inhibition at 1 µg/mL in test [1] (1 μg/ml) came out at 54%.

Regarding `CC(C)Nc1cccnc1N1CCN(C(=O)c2ccc(C(=O)NCCc3c[nH]cn3)cn2)CC1` [Exam. 80, N-[2-(1H-imidazol4-yl)ethyl]-6-[1-[3-(isopropylamino)-2-pyridyl]piperazin-4-yl-carbonyl]nicotinamide], on HBV polymerase, the inhibition at 0.01 µg/mL turned out to be 52%, the inhibition at 0.1 µg/mL is 61% and the inhibition at 1 µg/mL was found to be 70%. In addition, the inhibition at 0.1 µg/mL in test [1] (0.1 μg/ml) amounted to 21%. Besides, the inhibition at 1 µg/mL in test [1] (1 μg/ml) came to 48%.

On to `CC(C)Nc1cccnc1N1CCN(C(=O)c2ccc(C(=O)NCCc3cccs3)cn2)CC1` [Exam. 81, 6-[1-[3-(isopropylamino)-2-pyridyl]piperazin-4-yl-carbonyl]-N-[2-(2-thienyl)ethyl]nicotinamide], for which, on HBV polymerase, the inhibition at 0.01 µg/mL turned out to be 44%, the inhibition at 0.1 µg/mL worked out at 60% and the inhibition at 1 µg/mL was 80%. Also, the inhibition at 0.1 µg/mL in test [1] (0.1 μg/ml) worked out at 54%. Further, the inhibition at 1 µg/mL in test [1] (1 μg/ml) worked out at 75%.

As for `CC(C)Nc1cccnc1N1CCN(C(=O)c2ccc(C(=O)NCCc3ccccn3)cn2)CC1` [Exam. 82, 6-[1-[3-(isopropylamino)-2-pyridyl]piperazin-4-yl-carbonyl]-N-[2-(2-pyridyl)ethyl]nicotinamide], at HBV polymerase, the inhibition at 0.01 µg/mL is 24%, the inhibition at 0.1 µg/mL was determined as 53% and the inhibition at 1 µg/mL was 67%. In addition, the inhibition at 0.1 µg/mL in test [1] (0.1 μg/ml) came to 65%. Besides, the inhibition at 1 µg/mL in test [1] (1 μg/ml) worked out at 80%.

Consider `CC(C)Nc1cccnc1N1CCN(C(=O)c2ccc(C(=O)NCCCn3ccnc3)cn2)CC1` [Exam. 83, N-[3-(1H-imidazol-1-yl)propyl]-6-[1-[3-(isopropylamino)-2-pyridyl]piperazin-4-yl-carbonyl]nicotinamide], for which, at HBV polymerase, the inhibition at 0.01 µg/mL amounted to 65%, the inhibition at 0.1 µg/mL was 72% and the inhibition at 1 µg/mL came to 89%. Besides, the inhibition at 0.1 µg/mL in test [1] (0.1 μg/ml) is 30%. The inhibition at 1 µg/mL in test [1] (1 μg/ml) is 62%.

In the case of `CC(C)CNc1cccnc1N1CCN(C(=O)c2ccc(C(=O)NCCCn3ccnc3)cn2)CC1` [Exam. 84, N-[3-(1H-imidazol-1-yl)propyl]-6-[1-[3-(isobutylamino)-2-pyridyl]piperazin-4-yl-carbonyl]nicotinamide], on HBV polymerase, the inhibition at 0.01 µg/mL stood at 60%, the inhibition at 0.1 µg/mL stood at 72% and the inhibition at 1 µg/mL is 88%. Moreover, the inhibition at 0.1 µg/mL in test [1] (0.1 μg/ml) turned out to be 50%. Moreover, the inhibition at 1 µg/mL in test [1] (1 μg/ml) was 62%.

For `CC(C)Nc1cccnc1N1CCN(C(=O)c2ccc(C(=O)Nc3ncccc3O)cn2)CC1` [Exam. 85, N-(3-hydroxy-2-pyridyl)-6-[1-[3-(isopropylamino)-2-pyridyl]piperazin-4-yl-carbonyl]nicotinamide], on HBV polymerase, the inhibition at 0.01 µg/mL was determined as 61%, the inhibition at 0.1 µg/mL was 70% and the inhibition at 1 µg/mL worked out at 88%. Further, the inhibition at 0.1 µg/mL in test [1] (0.1 μg/ml) came to 47%. The inhibition at 1 µg/mL in test [1] (1 μg/ml) came out at 70%.

Regarding `CC(C)NC(=O)c1ccc(C(=O)N2CCN(CCO)CC2)nc1` [Exam. 87, 6-[1-(2-hydroxyethyl)piperazin-4-yl-carbonyl]-N-isopropylnicotinamide.HCl], on HBV polymerase, the inhibition at 0.01 µg/mL is 52%, the inhibition at 0.1 µg/mL was 58% and the inhibition at 1 µg/mL came to 75%. In test [1] (0.1 μg/ml), the inhibition at 0.1 µg/mL was 60%. For the same molecule, the inhibition at 1 µg/mL in test [1] (1 μg/ml) came to 81%.

Regarding `CC(C)CNC(=O)c1ccc(C(=O)N2CCN(CCO)CC2)nc1` [Exam. 88, 6-[1-(2-hydroxyethyl)piperazin-4-yl-carbonyl]-N-isobutylnicotinamide.HCl], the inhibition at 0.01 µg/mL at HBV polymerase turned out to be 55%. Besides, the inhibition at 0.1 µg/mL was found to be 67% on HBV polymerase and 50% in test [1] (0.1 μg/ml). Besides, the results for the inhibition at 1 µg/mL (on HBV polymerase; in test [1] (1 μg/ml)) were 81% and 70%, respectively.

As for `CCNC(=O)c1ccc(C(=O)N2CCN(CCO)CC2)nc1` [Exam. 89, N-ethyl-6-[1-(2-hydroxyethyl)piperazin-4-yl-carbonyl]nicotinamide.HCl], at HBV polymerase, the inhibition at 0.01 µg/mL stood at 35%, the inhibition at 0.1 µg/mL amounted to 50% and the inhibition at 1 µg/mL stood at 68%. Moreover, the inhibition at 0.1 µg/mL in test [1] (0.1 μg/ml) turned out to be 35%. The inhibition at 1 µg/mL in test [1] (1 μg/ml) is 62%.

Take `O=C(NCCO)c1ccc(C(=O)N2CCN(CCO)CC2)nc1` [Exam. 93, N-(2-hydroxyethyl)-6-[1-(2-hydroxyethyl)piperazin-4-yl-carbonyl]nicotinamide]: at HBV polymerase, the inhibition at 0.01 µg/mL came out at 30%, the inhibition at 0.1 µg/mL was determined as 59% and the inhibition at 1 µg/mL stood at 73%. Also, the inhibition at 0.1 µg/mL in test [1] (0.1 μg/ml) amounted to 25%. The inhibition at 1 µg/mL in test [1] (1 μg/ml) came to 50%.

As for `CC[C@H](CO)NC(=O)c1ccc(C(=O)N2CCN(CCO)CC2)nc1` [Exam. 94, 6-[1-(2-hydroxyethyl)piperazin-4-yl-carbonyl]-N-[(1R)-1-(hydroxymethyl)propyl]nicotinamide.HCl], on HBV polymerase, the inhibition at 0.01 µg/mL was determined as 20%, the inhibition at 0.1 µg/mL came out at 51% and the inhibition at 1 µg/mL came out at 72%. For the same molecule, the inhibition at 0.1 µg/mL in test [1] (0.1 μg/ml) came to 30%. In addition, the inhibition at 1 µg/mL in test [1] (1 μg/ml) was found to be 62%.

Consider `COCCNC(=O)c1ccc(C(=O)N2CCN(CCO)CC2)nc1` [Exam. 98, 6-[1-(2-hydroxyethyl)piperazin-4-yl-carbonyl]-N-(2-methoxyethyl)nicotinamide.HCl], for which, on HBV polymerase, the inhibition at 0.01 µg/mL came to 57%, the inhibition at 0.1 µg/mL amounted to 70% and the inhibition at 1 µg/mL came out at 85%. Further, the inhibition at 0.1 µg/mL in test [1] (0.1 μg/ml) was 61%. In addition, the inhibition at 1 µg/mL in test [1] (1 μg/ml) stood at 76%.

Turning to `COCCCNC(=O)c1ccc(C(=O)N2CCN(CCO)CC2)nc1` [Exam. 99, 6-[1-(2-hydroxyethyl)piperazin-4-yl-carbonyl]-N-(3-methoxypropyl)nicotinamide], on HBV polymerase, the inhibition at 0.01 µg/mL was 15%, the inhibition at 0.1 µg/mL turned out to be 60% and the inhibition at 1 µg/mL stood at 68%. For the same molecule, the inhibition at 0.1 µg/mL in test [1] (0.1 μg/ml) was 65%. The inhibition at 1 µg/mL in test [1] (1 μg/ml) was 75%.

With `COCCN(CCOC)C(=O)c1ccc(C(=O)N2CCN(CCO)CC2)nc1` [Exam. 100, N,N-bis(2-methoxyethyl)-6-[1-(2-hydroxyethyl)piperazin-4-yl-carbonyl]nicotinamide.HCl], the inhibition at 0.01 µg/mL at HBV polymerase was 20%. The inhibition at 0.1 µg/mL at HBV polymerase is 49%; in test [1] (0.1 μg/ml), 40%. The figures for the inhibition at 1 µg/mL (at HBV polymerase; in test [1] (1 μg/ml)) were 77% and 64%, respectively.

As to `COC(CNC(=O)c1ccc(C(=O)N2CCN(CCO)CC2)nc1)OC` [Exam. 101, N-(2,2-dimethoxyethyl)-6-[1-(2-hydroxyethyl)piperazin-4-yl-carbonyl]nicotinamide], on HBV polymerase, the inhibition at 0.01 µg/mL is 55%, the inhibition at 0.1 µg/mL came out at 63% and the inhibition at 1 µg/mL worked out at 85%. Moreover, in test [1], the inhibition at 0.1 µg/mL is 41% and the inhibition at 1 µg/mL is 56%.

For `O=C(NCCN1CCOCC1)c1ccc(C(=O)N2CCN(CCO)CC2)nc1` [Exam. 102, 6-[1-(2-hydroxyethyl)piperazin-4-yl-carbonyl]-N-[2-(morpholin-4-yl)-ethyl]nicotinamide.HCl], at HBV polymerase, the inhibition at 0.01 µg/mL is 32%, the inhibition at 0.1 µg/mL came out at 56% and the inhibition at 1 µg/mL came out at 70%. For the same molecule, the inhibition at 0.1 µg/mL in test [1] (0.1 μg/ml) stood at 25%. For the same molecule, the inhibition at 1 µg/mL in test [1] (1 μg/ml) worked out at 40%.
